One series has as its system PKCζ. The series can be described thus: PKC activation (Western blot, P-PKCζ T560 immunofluorescence). The following applies: 5 μM, 16 h. It counts as cell-based, human. Here is the method: (§1) After treatments, whole-cell lysates were prepared using RIPA lysis buffer supplemented with protease inhibitors (AEBSF, aprotinin, bestatin, E-64, EDTA, leupeptin, Sigma-Aldrich, Saint Louis, MO, USA) and orthovanadate (Sigma-Aldrich, Saint Louis, MO, USA). The proteins in the lysates were collected and quantified using the Pierce BCA protein assay kit (Thermo Fisher Scientific, Waltham, MA, USA). Subsequently, the proteins were denatured by heating at 95 °C for 5 min in the presence of 2% Sodium Dodecyl Sulfate (SDS, Sigma-Aldrich, Saint Louis, MO, USA), 150 mM dithiothreitol (DTT, Sigma-Aldrich, Saint Louis, MO, USA), and 0.01% bromophenol blue (Sigma-Aldrich, Saint Louis, MO, USA). The samples were then analyzed using SDS-PAGE (SDS-Polyacrylamide Gel Electrophoresis) and Western blotting (WB).
(§2) For INSRβ endocytosis experiments, the cells were stimulated with 50 ng/mL insulin for 15 min. For transferrin endocytosis experiments, the cells were incubated with 25 μg/mL Transferrin Texas Red for 5 min. After treatment, the cells were washed with PBS and fixed with 4% PFA for 10 min at room temperature, followed by an additional PBS wash. The cells were then permeabilized by incubating them with cold HEPES-Triton X-100 buffer for 5 min at 4 °C. After permeabilization, the cells were incubated with primary antibodies for 30 min, followed by incubation with Alexa Fluor 488- or 546-conjugated secondary antibodies (Invitrogen, Waltham, MA, USA) and phalloidin, labeled with either Alexa Fluor 546 or 633 (Invitrogen Waltham, MA, USA) for 30 min. After incubation, coverslips were mounted on glass slides using a mounting medium. Images were acquired using a confocal microscope (Leica TCS SP8, Wetzlar, Germany) and analyzed using ImageJ (v 1.52a) software in order to quantify and analyze the fluorescence signals.

The subject of the next series is TFEB. The series can be described thus: TFEB nuclear localization (confocal microscopy). Format: cell-based, human. The following applies: 5 μM, 16 h; compared to untreated cells. Here is the method: as §2
Another series concerns 3T3L1 cells. The series can be described thus: PA accumulation in cells transfected with DOCK2-Pii. It counts as cell-based, mouse. The following applies: 5 μM, 16 h; compared to untreated controls. Here is the method: Transfection was carried out using Lipofectamine 3000 (Thermo Fisher Scientific, Waltham, MA, USA), following the manufacturer’s instructions. The cells were incubated with the plasmid for 24 h to ensure successful transfection and plasmid expression and were used for experiments 48 h post-transfection.

A further series deals with INSRβ. Kind of series: INSRβ endocytosis assay and immunofluorescence localization. Format: cell-based, human. The following applies: 5 μM, 16 h; 15 min insulin stimulation. Here is the method: ADSCs were seeded at a density of 100,000 cells/well in a 6-well plate. The protocol was carried out as described in Barrow-McGee et al., 2015 [33]. Cell surface proteins were labeled by incubating the cells with 0.2 mg/mL sulpho-NHS-SS-biotin (Sigma-Aldrich, Saint Louis, MO, USA) in PBS for 45 min on ice. Labeled cells were then washed with cold PBS and incubated at 37 °C in a culture medium containing insulin at 50 ng/mL to allow for INSR trafficking. At the indicated times, the medium was removed and the dishes were transferred to ice and washed with cold PBS. Biotin was removed from the proteins that remained at the cell surface via reduction for 15 min with 180 mM of the membrane-impermeant reducing agent MesNa (sodium 2 mercaptoethane sulphonate, Sigma-Aldrich, Saint Louis, MO, USA) in 50 mM Tris and 100 mM NaCl at pH 8.6. MesNa was quenched by adding 180 mM iodoacetamide (IAA, Sigma-Aldrich, Saint Louis, MO, USA) for 10 min. The cells were lysed using RIPA buffer as previously described. The proteins were quantified using BCA; equal protein amounts received streptavidin–agarose beads (Sigma-Aldrich, Saint Louis, MO, USA) and were agitated at 4 °C for 2 h. Then, the beads were collected via centrifugation (7000× g) and washed in lysis buffer, and the proteins were extracted by heating at 95 °C with sample buffer. In each internalization assay, two controls were carried out. To measure INSRβ at the surface, biotinylated cells at 4 °C were lysed without biotin reduction (Ts). To verify the efficiency of the surface biotin removal, the biotin reduction and MesNa-quenching steps were carried out on cells that had remained on ice (T0). Then, lysis was carried out. All lysates were analyzed via Western blot.
The percentages of internalized INSR were calculated using the following formula: internalized receptor = (receptor level after incubation at 37 °C) − (receptor level at time 0)/(total surface receptor) × 100. All samples were normalized on the input INSR signal.
For INSRβ endocytosis experiments, the cells were stimulated with 50 ng/mL insulin for 15 min. For transferrin endocytosis experiments, the cells were incubated with 25 μg/mL Transferrin Texas Red for 5 min. After treatment, the cells were washed with PBS and fixed with 4% PFA for 10 min at room temperature, followed by an additional PBS wash. The cells were then permeabilized by incubating them with cold HEPES-Triton X-100 buffer for 5 min at 4 °C. […] Images were acquired using a confocal microscope (Leica TCS SP8, Wetzlar, Germany) and analyzed using ImageJ (v 1.52a) software in order to quantify and analyze the fluorescence signals.

The test system of series [1] is ADSCs. Kind of series: Acidic vesicle quantification (Lysotracker). Format: cell-based, human. As for the experimental part:
After treatment, the medium was removed, and the cells were stained with 50 nM Lysotracker Deep Red (Invitrogen, Waltham, MA, USA) and 5 μg/mL Hoechst 33342 (Sigma). Staining was conducted in the dark at 37 °C for 30 min. Fluorescence signals were captured using a FLoid Cell Imaging Station (Life Technology, Carlsbad, CA, USA). The ratio of Lysotracker red signal to blue nuclear signal was quantified using ImageJ software. For acidic vesicle rescue experiments, ADSCs were plated at a concentration of 10,000 cells per well in 48-well plates.

The subject of series [2] is ADSCs. Kind of series: Vacuolization assay. It counts as cell-based, human. The following applies: 5 μM, 4 h. As for the experimental part: After 4 h, pictures were acquired using a phase contrast microscope (DMi1, Leica, Wetzlar, Germany).
The subject of a further series is cathepsin B. The series can be described thus: Cathepsin B Western blot. It counts as cell-based, human. The following applies: 5 μM, 16 h. Here is the method:
as §1
A general note: A western blot detects proteins with antibodies after separation by electrophoresis.

`Cc1cc2c(s1)Nc1ccccc1N=C2N1CCN(C)CC1` [olanzapine]: the “canonical PKCs (cPKCs) and atypical PKCζ activation state” value with PKCζ (Western blot) is “activation”. Besides, the “increase in nuclear P-PKCζ T560” value in the series with PKCζ (immunofluorescence) amounted to 2 fold. Also, the “increase in TFEB nuclear localization” value in the series on TFEB is reported as 50%. The PA accumulation entry in the series on 3T3L1 cells is “significant accumulation”. Besides, in the series with INSRβ, the “INSRβ colocalization in LAMP1-positive lysosomes” value is recorded as “unaffected”, the INSRβ internalization entry is on record as “significant reduction”, the “INSRβ localization in CD63-positive recycling endosomes” value is recorded as “reduced” and the “localization of INSRβ in RAB7-positive late endosomes” value is “significantly increased localization”. In addition, in the series with ADSCs [1], the “acidic compartment accumulation (Lysotracker staining)” value is “progressive time- and dose-dependent increase”; the “concentrations at which acidic compartment accumulation was observed” value is “below 1 µM”. The vacuolization induction entry in the series with ADSCs [2] is listed as “absent”. Also, the “levels of cathepsin B” value with cathepsin B is given as “elevated levels”.

The record behind these values is paper PMC11674800, “Second-Generation Antipsychotics Induce Metabolic Disruption in Adipose Tissue-Derived Mesenchymal Stem Cells Through an aPKC-Dependent Pathway” (Cells, 2024).
